Source: patent US11560373B2, “Compounds and their use as PDE4 activators” (Mironid Limited, priority 2018, dated 2023)

molecular target: T1, PDE4D5 (Homo sapiens, UniProt Q08499); experiment: PDE assay, [3H]cAMP hydrolysis by HEK-PDE4D5 cell lysate cytosol fraction; format: biochemical; settings: 30 μM; mean % increase in counts over basal activity
T1 construct: stably expressed the full-length human PDE4D5, PDE4B1 and PDE4A4 long isoforms; made in house
Method: HEK 293 cells were transfected with pDEST™ PDE4 expression vectors using Lipofectamine LTX/Plus reagent (Invitrogen) as outlined by the manufacturer and clonal isolates expanded to obtain cell lines that stably expressed the full-length human PDE4D5, PDE4B1 and PDE4A4 long isoforms and the full length human PDE4B2 short isoform. These were called the HEK-PDE4D5, HEK-PDE4B1, HEK-PDE4A4 and HEK-PDE4B2 cell lines, respectively.
HEK-PDE4D5 cells were seeded out in 100 mm plates and incubated at 37° C. in an atmosphere of 5% CO2, 95% air. Cell lysates were prepared using KHEM buffer [50 mM KCl, 10 mM EGTA, 50 mM HEPES (pH 7.2), 1.92 mM MgCl2].
To prepare the cell lysates, the 100 mm plates containing the cells were placed on ice and washed with ice-cold PBS (phosphate buffered saline, pH 7.4). KHEM buffer (500 μl) was added to the cells. Cells were then scraped off the plate and triturated using a needle (BD Microlance™ 0.8, 40 mm). The lysed cells were then centrifuged at 2000 rpm for 10 minutes to remove cell debris and the supernatant (cell lysate containing recombinant PDE4D5) was transferred to a fresh tube and kept on ice.
The cell lysate containing recombinant PDE4D5 was transferred into a centrifuge tube and placed into an ultracentrifuge (BECKMAN COULTER) and spun at high speed (100,000 g) for 30 minutes at 4° C. The cytosol fraction was then collected and its protein amount determined using a BCA protein assay.
PDE assays were performed in thin walled V-bottomed 96-well plates. The assays were performed at a final concentration of 10 mM Tris/5 mM MgCl2 plus PDE4D5 cell lysate cytosol fraction, containing over-expressed PDE4D5, with and without test compound. The lysate/compound mix were incubated together for 15 min at room temperature on an orbital shaker prior to addition of [^3H] cAMP (final concentration 1 μM [^3H] cAMP; Perkin Elmer) to a final volume of 50 μl per reaction. The reactions were then incubated for 10 minutes at 30° C., terminated by heating for 2 min at 95° C. and allowed to cool. Snake venom (12.5 μl of 1 mg/ml; Crotalus atrox, Sigma) was then added and the plates were agitated and incubated for a further 15 minutes at 30° C. Dowex ion exchange resin (Sigma, chloride form, 200-400 mesh; 200 μl; prepared as a 1:1 Dowex: water stock, thoroughly re-suspended and diluted 2:1 with ethanol) was then added to each well and the plates incubated for 15 min at room temperature on an orbital shaker ensuring sufficient agitation for resin suspension (550 RPM). The reaction mixture was then transferred to a 96 well filter plate (Millipore; […] pore size) and filtered into a receiving 96-well plate to remove the dowex suspension. 30 μL of the filtered solution was then transferred to the wells of an Opti-plate (Perkin Elmer) 96 well assay plate and 120 μl of Microscint 40 scintillation fluid was added. The plate was then placed on an orbital shaker for 10 min at high speed (900 RPM) to mix the sample with scintillation fluid prior to quantitation using a plate based scintillation counter (Top-Count).
The % increase in counts in the presence of test compound at a particular concentration indicates the % increase in enzyme activity at that concentration.

T1 sequence (Q08499 1-745 isoform Q08499-6): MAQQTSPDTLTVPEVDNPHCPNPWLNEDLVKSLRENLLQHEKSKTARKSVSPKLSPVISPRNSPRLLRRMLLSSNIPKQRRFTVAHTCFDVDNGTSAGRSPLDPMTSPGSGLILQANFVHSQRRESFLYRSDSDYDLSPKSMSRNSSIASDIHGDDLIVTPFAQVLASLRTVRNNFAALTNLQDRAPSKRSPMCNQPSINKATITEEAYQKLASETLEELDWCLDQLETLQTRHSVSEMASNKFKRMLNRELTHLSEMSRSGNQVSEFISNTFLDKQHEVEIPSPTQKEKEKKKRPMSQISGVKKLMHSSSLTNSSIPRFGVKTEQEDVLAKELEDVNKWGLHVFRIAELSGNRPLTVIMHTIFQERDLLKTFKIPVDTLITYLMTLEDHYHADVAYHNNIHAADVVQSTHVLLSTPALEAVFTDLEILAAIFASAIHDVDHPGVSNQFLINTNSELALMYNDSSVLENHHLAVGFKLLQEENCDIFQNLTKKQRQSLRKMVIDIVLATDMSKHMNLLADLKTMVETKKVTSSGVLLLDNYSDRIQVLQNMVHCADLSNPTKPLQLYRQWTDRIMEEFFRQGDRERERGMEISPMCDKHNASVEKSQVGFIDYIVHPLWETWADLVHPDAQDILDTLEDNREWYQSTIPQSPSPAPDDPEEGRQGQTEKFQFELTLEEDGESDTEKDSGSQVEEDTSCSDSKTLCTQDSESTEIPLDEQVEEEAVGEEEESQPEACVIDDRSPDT

| activation at 30 µM | Structure (SMILES) |
| --- | --- |
| 26.8% | CCn1nc(-c2ccc(Cl)c(F)c2)nc1CC(=O)NCc1ccc(OC)nc1 [Example 17, 2-[3-(4-Chloro-3-fluorophenyl)-1-ethyl-1H-1,2,4-triazol-5-yl]-N-[(6-methoxypyridin-3-yl)methyl]acetamide] |
| 77.8% | Cn1nc(-c2ccc(Cl)c(F)c2)nc1CC(=O)NCc1cc(Cl)cc(Cl)c1 [Example 18, 2-[3-(4-Chloro-3-fluorophenyl)-1-methyl-1H-1,2,4-triazol-5-yl]-N-[(3,5-dichlorophenyl)methyl]acetamide] |
| 87.8% | COc1cccc(CNC(=O)Cc2nc(-c3ccc(Cl)c(F)c3)nn2C)c1 [Example 19, 2-[3-(4-Chloro-3-fluorophenyl)-1-methyl-1H-1,2,4-triazol-5-yl]-N-[(3-methoxyphenyl)methyl]acetamide] |
| 78.6% | Cn1nc(-c2ccc(Cl)c(F)c2)nc1CC(=O)NCc1cccc(F)c1 [Example 20, 2-[3-(4-Chloro-3-fluorophenyl)-1-methyl-1H-1,2,4-triazol-5-yl]-N-[(3-fluorophenyl)methyl]acetamide] |
| 60.8% | Cn1nc(-c2ccc(Cl)c(F)c2)nc1CC(=O)NCc1ccc2[nH]ncc2c1 [Example 21, 2-[3-(4-Chloro-3-fluorophenyl)-1-methyl-1H-1,2,4-triazol-5-yl]-N-[(1H-indazol-5-yl)methyl]acetamide] |
| 53.8% | O=C(Cc1nc(-c2ccc(Cl)c(F)c2)nn1CCO)NCc1cc(Cl)cc(Cl)c1 [Example 23, 2-[3-(4-Chloro-3-fluorophenyl)-1-(2-hydroxyethyl)-1H-1,2,4-triazol-5-yl]-N-[(3,5-dichlorophenyl)methyl]acetamide] |
| 72.2% | CCn1nc(-c2ccc(Cl)c(F)c2)nc1C(C)C(=O)NCc1cccc(F)c1 (centres unmarked) [Example 24, 2-[3-(4-Chloro-3-fluorophenyl)-1-ethyl-1H-1,2,4-triazol-5-yl]-N-[(3-fluorophenyl)methyl]propanamide] |
| 87.5% | Cc1cc(CNC(=O)Cc2nc(-c3ccc(Cl)c(F)c3)nn2CC2CC2)cc(C)n1 [Example 26, 2-[3-(4-Chloro-3-fluorophenyl)-1-(cyclopropylmethyl)-1H-1,2,4-triazol-5-yl]-N-[(2,6-dimethylpyridin-4-yl)methyl]acetamide] |
| 106% | O=C(Cc1nc(-c2ccc(Cl)c(F)c2)nn1CC1CC1)NCc1ccc2[nH]ncc2c1 [Example 27, 2-[3-(4-Chloro-3-fluorophenyl)-1-(cyclopropylmethyl)-1H-1,2,4-triazol-5-yl]-N-[(1H-indazol-5-yl)methyl]acetamide] |
| 46.3% | CCn1nc(-c2ccc(OC(F)(F)F)cc2)nc1CC(=O)NCc1cc(Cl)cc(Cl)c1 [Example 28, N-[(3,5-Dichlorophenyl)methyl]-2-{1-ethyl-3-[4-(trifluoromethoxy)phenyl]-1H-1,2,4-triazol-5-yl}acetamide] |
| 45.9% | CCn1nc(-c2ccc(C#N)cc2)nc1CC(=O)NCc1cc(Cl)cc(Cl)c1 [Example 30, 2-[3-(4-Cyanophenyl)-1-ethyl-1H-1,2,4-triazol-5-yl]-N-[(3,5-dichlorophenyl)methyl]acetamide] |
| 42.8% | CCOc1cc(-c2nc(CC(=O)NCc3cc(Cl)cc(Cl)c3)n(CC)n2)ccc1Cl [Example 32, 2-[3-(4-Chloro-3-ethoxyphenyl)-1-ethyl-1H-1,2,4-triazol-5-yl]-N-[(3,5-dichlorophenyl)methyl]acetamide] |
| 28.5% | CCn1nc(-c2ccc(Cl)c(OC(C)C)c2)nc1CC(=O)NCc1cc(C)nc(C)c1 [Example 35, 2-[3-(4-Chloro-3-isopropyloxyphenyl)-1-ethyl-1H-1,2,4-triazol-5-yl]-N-[(2,6-dimethylpyridin-4-yl)methyl]acetamide] |
| 33% | CCn1nc(-c2ccc(Cl)c(OC(C)C)c2)nc1CC(=O)N[C@H]1CCc2ccccc21 [Example 36, 2-[3-(4-Chloro-3-isopropyloxyphenyl)-1-ethyl-1H-1,2,4-triazol-5-yl]-N-[(1S)-2,3-dihydro-1H-inden-1-yl]acetamide] |
| 40.2% | CCn1nc(-c2ccc(Cl)c(OC(C)C)c2)nc1CC(=O)NCc1cccc(C#N)c1 [Example 37, 2-[3-(4-Chloro-3-isopropyloxyphenyl)-1-ethyl-1H-1,2,4-triazol-5-yl]-N-[(3-cyanophenyl)methyl]acetamide] |

Second part, the molecule before the results:

| Structure (SMILES) | activation at 30 µM |
| --- | --- |
| CCn1nc(-c2ccc(Cl)c(F)c2)nc1CC(=O)NCc1cccc2cn[nH]c12 [Example 4, 2-[3-(4-Chloro-3-fluorophenyl)-1-ethyl-1H-1,2,4-triazol-5-yl]-N-[(1H-indazol-7-yl)methyl]acetamide] | 32.2% |
| CCn1nc(-c2ccc(Cl)c(F)c2)nc1CC(=O)NCc1cc(Cl)cc(Cl)c1 [Example 5, 2-[3-(4-Chloro-3-fluorophenyl)-1-ethyl-1H-1,2,4-triazol-5-yl]-N-(3,5-dichlorobenzyl)acetamide] | 56.1% |
| CCn1nc(-c2ccc(Cl)c(F)c2)nc1CC(=O)Nc1cc(C)on1 [Example 6, 2-[3-(4-Chloro-3-fluorophenyl)-1-ethyl-1H-1,2,4-triazol-5-yl]-N-(5-methyl-1,2-oxazol-3-yl)acetamide] | 38.5% |
| CCn1nc(-c2ccc(Cl)c(F)c2)nc1CC(=O)NCc1ccc2[nH]ncc2c1 [Example 7, 2-[3-(4-Chloro-3-fluorophenyl)-1-ethyl-1H-1,2,4-triazol-5-yl]-N-[(1H-indazol-5-yl)methyl]acetamide] | 94.1% |
| CCn1nc(-c2ccc(Cl)c(F)c2)nc1CC(=O)Nc1cnccn1 [Example 8, 2-[3-(4-Chloro-3-fluorophenyl)-1-ethyl-1H-1,2,4-triazol-5-yl]-N-(pyrazin-2-yl)acetamide] | 49.6% |
| CCn1nc(-c2ccc(Cl)c(F)c2)nc1CC(=O)NCc1ccc2[nH]c(=O)[nH]c2c1 [Example 9, 2-[3-(4-Chloro-3-fluorophenyl)-1-ethyl-1H-1,2,4-triazol-5-yl]-N-[(2-oxo-2,3-dihydro-1H-benzo[d]imidazol-5-yl)methyl]acetamide] | 55.6% |
| CCn1nc(-c2ccc(Cl)c(F)c2)nc1CC(=O)NCc1cc(C)cc(Cl)c1 [Example 10, 2-[3-(4-Chloro-3-fluorophenyl)-1-ethyl-1H-1,2,4-triazol-5-yl]-N-[(3-chloro-5-methylphenyl)methyl]acetamide] | 136% |
| CCn1nc(-c2ccc(Cl)c(F)c2)nc1CC(=O)NCc1cc(C)cc(F)c1 [Example 11, 2-[3-(4-Chloro-3-fluorophenyl)-1-ethyl-1H-1,2,4-triazol-5-yl]-N-[(3-fluoro-5-methylphenyl)methyl]acetamide] | 52.8% |
| CCn1nc(-c2ccc(Cl)c(F)c2)nc1CC(=O)NCc1cc(C)cc(C)c1 [Example 12, 2-[3-(4-Chloro-3-fluorophenyl)-1-ethyl-1H-1,2,4-triazol-5-yl]-N-[(3,5-dimethylphenyl)methyl]acetamide] | 71.6% |
| CCn1nc(-c2ccc(Cl)c(F)c2)nc1CC(=O)NCc1cccc(F)c1F [Example 13, 2-[3-(4-Chloro-3-fluorophenyl)-1-ethyl-1H-1,2,4-triazol-5-yl]-N-[(2,3-difluorophenyl)methyl]acetamide] | 28.4% |
| CCOc1cccc(CNC(=O)Cc2nc(-c3ccc(Cl)c(F)c3)nn2CC)c1 [Example 14, 2-[3-(4-Chloro-3-fluorophenyl)-1-ethyl-1H-1,2,4-triazol-5-yl]-N-[(3-ethoxyphenyl)methyl]acetamide] | 142% |
| CCn1nc(-c2ccc(Cl)c(F)c2)nc1CC(=O)NCc1cc(OC)cc(OC)c1 [Example 15, 2-[3-(4-Chloro-3-fluorophenyl)-1-ethyl-1H-1,2,4-triazol-5-yl]-N-[(3,5-dimethoxyphenyl)methyl]acetamide] | 61.5% |
| CCn1nc(-c2ccc(Cl)c(F)c2)nc1CC(=O)NCc1ccc(OC)cc1 [Example 16, 2-[3-(4-Chloro-3-fluorophenyl)-1-ethyl-1H-1,2,4-triazol-5-yl]-N-[(4-methoxyphenyl)methyl]acetamide] | 44.7% |

same assay, conditions: dose response, FIG. 1

| activation of PDE4 long form PDE4D5 (FIG. 1) | Structure (SMILES) |
| --- | --- |
| dose-dependent activation | CCn1nc(-c2ccc(Cl)c(F)c2)nc1CC(=O)NCc1cc(Cl)cc(Cl)c1 [Example 5, 2-[3-(4-Chloro-3-fluorophenyl)-1-ethyl-1H-1,2,4-triazol-5-yl]-N-(3,5-dichlorobenzyl)acetamide] |
